Results on 15 molecules are retold here after patent publication US7470711B2, “Piperidinyl substituted cyclohexane-1,4-diamines” (Janssen Pharmaceutica N.V., priority 2005, dated 2008).

For orientation: Ki means a measure of affinity in units of concentration, obtained from inhibition or displacement. The melting point is the temperature, or range, at which the solid turns liquid.

Where a name gives a salt, the structure may show the parent alone. Read-outs that look alike come from different tables or passages of the source.

One data set deals with T1, α1a-AR (Homo sapiens, UniProt P35348).
T1 construct: expressed in transfected cells; host or cells: COS-7 cells (membranes)
T1 sequence (P35348 1-455 isoform P35348-4): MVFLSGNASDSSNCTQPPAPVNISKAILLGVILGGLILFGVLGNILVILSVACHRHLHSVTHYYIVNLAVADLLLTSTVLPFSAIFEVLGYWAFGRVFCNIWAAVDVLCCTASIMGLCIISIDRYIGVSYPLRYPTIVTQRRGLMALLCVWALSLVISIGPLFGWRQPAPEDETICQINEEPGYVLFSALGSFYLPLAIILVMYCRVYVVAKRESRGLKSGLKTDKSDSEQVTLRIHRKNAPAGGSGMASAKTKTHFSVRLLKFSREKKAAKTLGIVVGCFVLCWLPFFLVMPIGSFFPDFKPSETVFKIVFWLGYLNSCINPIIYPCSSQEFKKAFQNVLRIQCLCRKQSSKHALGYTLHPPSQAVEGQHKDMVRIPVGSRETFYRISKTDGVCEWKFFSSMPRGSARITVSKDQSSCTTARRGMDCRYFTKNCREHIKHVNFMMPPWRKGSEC
As to the kind of experiment: α1-Adrenergic receptor radio-ligand binding assay, α1a subtype. As to the method:
(§1) Membranes were prepared from COS-7 cells (African Green monkey kidney SV40-transformed cells) that had been transfected with one of the three α1-AR subtypes (Genbank accession number for the α1a subtype: AF013261; Genbank accession number for the α1b subtype: NM000679; Genbank accession number for the α1d subtype: NM000678) using the following method: COS cells from ten 100 mm tissue culture plates were scraped into a 5 mL volume of TE (a mixture of 50 mM Tris-HCl, 5 mM EDTA, pH 7.4). […] The disrupted cells were centrifuged at 1000×g for 10 min at 4° C. Supernatants were centrifuged at 34,500×g for 20 min at 4° C. The membrane pellets were suspended in a 2 mL volume of TNE (a mixture of 50 mM Tris-HCl, 5 mM EDTA and 150 mM NaCl at pH 7.4). An aliquot of the membrane suspension was stored at −70° C. until use. The protein concentration was determined using the BioRad “DC” protein assay kit following membrane solubilization with Triton X-100.
(§2) Triplicate determinations of radio-ligand binding in the presence of increasing concentrations of testing compound were made. The reagents were added to 96-well polypropylene plate wells. […] The plate was incubated at rt for 1 hr. The contents of the wells were filtered through a glass filter (type C) (GF/C) membrane Unifilter plate (Packard Instruments) using the Packard Filtermate cell harvester. The filter plates were dried in a vacuum oven for 30 min at 40° C. 25 μL Microscint 20 liquid scintillation fluid (Packard Instuments) was added to each well. The radioactive content was analyzed in the TopCount microplate scintillation counter (Packard Instruments).

The next data set concerns the target T2, α1b-AR (Homo sapiens, UniProt P35368).
T2 construct: expressed in transfected cells; host or cells: COS-7 cells (membranes)
T2 sequence (P35368 1-520): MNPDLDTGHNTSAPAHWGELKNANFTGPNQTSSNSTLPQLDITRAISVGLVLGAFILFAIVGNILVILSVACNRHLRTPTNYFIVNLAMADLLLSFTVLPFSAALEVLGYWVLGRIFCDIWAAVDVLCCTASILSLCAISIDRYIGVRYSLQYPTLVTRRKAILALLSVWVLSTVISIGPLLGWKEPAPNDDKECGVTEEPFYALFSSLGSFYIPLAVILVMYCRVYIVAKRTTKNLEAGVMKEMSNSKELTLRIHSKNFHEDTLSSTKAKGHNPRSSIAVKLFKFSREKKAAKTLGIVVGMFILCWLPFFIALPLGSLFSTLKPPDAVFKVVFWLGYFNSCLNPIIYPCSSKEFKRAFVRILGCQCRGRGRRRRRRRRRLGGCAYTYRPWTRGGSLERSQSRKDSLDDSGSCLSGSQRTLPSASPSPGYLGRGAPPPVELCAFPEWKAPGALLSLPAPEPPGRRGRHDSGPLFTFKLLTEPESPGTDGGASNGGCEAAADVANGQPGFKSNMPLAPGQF
As to the kind of experiment: α1-Adrenergic receptor radio-ligand binding assay, α1b subtype. As for the experimental part:
as §1, §2

The target in a further data set is T3, α1d-AR (Homo sapiens, UniProt P25100).
T3 construct: expressed in transfected cells; host or cells: COS-7 cells (membranes)
T3 sequence (P25100 1-572): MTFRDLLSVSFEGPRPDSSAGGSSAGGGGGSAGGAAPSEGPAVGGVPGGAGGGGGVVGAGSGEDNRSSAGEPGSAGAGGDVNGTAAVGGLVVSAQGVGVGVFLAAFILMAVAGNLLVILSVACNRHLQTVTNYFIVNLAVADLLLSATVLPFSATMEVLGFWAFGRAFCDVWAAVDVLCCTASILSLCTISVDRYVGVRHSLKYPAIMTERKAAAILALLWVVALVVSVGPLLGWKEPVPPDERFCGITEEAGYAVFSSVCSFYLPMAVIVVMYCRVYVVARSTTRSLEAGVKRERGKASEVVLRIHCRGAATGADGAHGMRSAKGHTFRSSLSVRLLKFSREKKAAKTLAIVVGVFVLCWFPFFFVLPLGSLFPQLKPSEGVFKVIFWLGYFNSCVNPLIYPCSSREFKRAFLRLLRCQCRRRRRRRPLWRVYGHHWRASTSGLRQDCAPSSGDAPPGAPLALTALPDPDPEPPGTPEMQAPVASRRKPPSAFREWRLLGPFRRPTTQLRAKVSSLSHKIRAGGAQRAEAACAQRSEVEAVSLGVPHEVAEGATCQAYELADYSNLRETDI
As to the kind of experiment: α1-Adrenergic receptor radio-ligand binding assay, α1d subtype. As to the method:
as §1, §2

The mark [1] stands for this setting: 125I-HEAT, membranes of COS-7 cells transfected with α1a subtype, rt 1 hr, read-out: Receptor Binding, Ki α1a-AR.
Where [2] appears, read: 125I-HEAT, membranes of COS-7 cells transfected with α1b subtype, rt 1 hr, read-out: Receptor Binding, Ki α1b-AR.
[3] abbreviates: 125I-HEAT, membranes of COS-7 cells transfected with α1d subtype, rt 1 hr, read-out: Receptor Binding, Ki α1d-AR.

Regarding `COc1ccc(S(=O)(=O)N[C@H]2CC[C@H](N3CCC(c4ccccc4OCCF)CC3)CC2)cc1OC` [Cpd 28, N-trans-(4-{4-[2-(2-fluoro-ethoxy)-phenyl]-piperidin-1-yl}-cyclohexyl)-3,4-dimethoxy-benzenesulfonamide], the melting point was 142 °C. Besides, the Ki at α1a-AR (setting [1]) was 68.8 nM. The inhibition constant Ki on α1b-AR (setting [2]) was found to be 4400 nM. Further, the Ki on α1d-AR (setting [3]) was found to be 48.6 nM.
`O=S(=O)(N[C@H]1CC[C@H](N2CCC(c3ccccc3OCC(F)(F)F)CC2)CC1)c1ccc(OC(F)F)cc1` [Cpd 26, 4-difluoromethoxy-N-trans-(4-{4-[2-(2,2,2-trifluoro-ethoxy)-phenyl]-piperidin-1-yl}-cyclohexyl)-benzenesulfonamide] showed a melting point of 155 °C. This molecule came in with a Ki on α1a-AR of 37.5 nM. The inhibition constant (Ki) on α1b-AR (setting [2]) stood at 302 nM. Moreover, the Ki on α1d-AR (setting [3]) stood at 85.7 nM.
On to `CC(C)Oc1ccccc1C1CCN([C@H]2CC[C@H](NS(=O)(=O)c3ccc(F)c(F)c3)CC2)CC1` [Cpd 4, 3,4-difluoro-N-trans-{4-[4-(2-isopropoxy-phenyl)-piperidin-1-yl]-cyclohexyl}-benzenesulfonamide], for which the melting point stood at 239 °C. In addition, the inhibitory constant (Ki) at α1d-AR is 88.6 nM.
`CC(C)Oc1ccccc1C1CCN([C@H]2CC[C@@H](NS(=O)(=O)c3ccc(F)c(F)c3)CC2)CC1` [Cpd 3, 3,4-difluoro-N-cis-{4-[4-(2-isopropoxy-phenyl)-piperidin-1-yl]-cyclohexyl}-benzenesulfonamide] returned a melting point of 176 °C. Also, the inhibitory constant (Ki) on α1a-AR (setting [1]) is 3 nM. For the same molecule, the Ki on α1b-AR (setting [2]) was determined as 470 nM. Further, on α1d-AR (setting [3]), the Ki came out at 7.3 nM.
`O=S(=O)(N[C@H]1CC[C@@H](N2CCC(c3ccccc3OCC(F)(F)F)CC2)CC1)c1cc(Cl)ccc1F` [Cpd 19, 5-chloro-2-fluoro-N-cis-(4-{4-[2-(2,2,2-trifluoro-ethoxy)-phenyl]-piperidin-1-yl}-cyclohexyl)-benzenesulfonamide] registered a melting point of 204 °C. Further, the affinity on α1a-AR, expressed as Ki, was 5.8 nM. Besides, at α1b-AR (setting [2]), the inhibition constant (Ki) is 181 nM. In addition, the Ki on α1d-AR (setting [3]) came to 0.97 nM.
As for `COc1ccc(S(=O)(=O)N[C@H]2CC[C@@H](N3CCC(c4ccccc4OCC(F)F)CC3)CC2)cc1OC` [Cpd 29, N-cis-(4-{4-[2-(2,2-difluoro-ethoxy)-phenyl]-piperidin-1-yl}-cyclohexyl)-3,4-dimethoxy-benzenesulfonamide], the melting point turned out to be 219 °C. For the same molecule, at α1a-AR (setting [1]), the Ki was 12 nM. In addition, the inhibitory constant (Ki) on α1b-AR (setting [2]) was found to be 300 nM. Moreover, at α1d-AR (setting [3]), the Ki was 4.1 nM.
Molecule `O=S(=O)(N[C@H]1CC[C@H](N2CCC(c3ccccc3OCC(F)(F)F)CC2)CC1)c1cccc(OC(F)F)c1` [Cpd 24, 3-difluoromethoxy-N-trans-(4-{4-[2-(2,2,2-trifluoro-ethoxy)-phenyl]-piperidin-1-yl}-cyclohexyl)-benzenesulfonamide] registered a melting point of 169 °C. The Ki at α1a-AR (setting [1]) was found to be 12 nM. The Ki at α1b-AR (setting [2]) came to 355 nM. For the same molecule, the Ki at α1d-AR (setting [3]) is 70 nM.
With `O=S(=O)(N[C@H]1CC[C@H](N2CCC(c3ccccc3OCC(F)(F)F)CC2)CC1)c1ccc2c(c1)OCCO2` [Cpd 14, 2,3-dihydro-benzo[1,4]dioxine-6-sulfonic acid trans-(4-{4-[2-(2,2,2-trifluoro-ethoxy)-phenyl]-piperidin-1-yl}-cyclohexyl)-amide], the melting point was found to be 146 °C. Moreover, the Ki at α1a-AR was found to be 2.2 nM. For the same molecule, the affinity at α1b-AR, expressed as Ki, was 90.6 nM. On α1d-AR, this molecule gave an inhibition constant (Ki) of 26 nM.
On to `O=S(=O)(N[C@H]1CC[C@H](N2CCC(c3ccccc3OCC(F)(F)F)CC2)CC1)c1cc(Cl)ccc1F` [Cpd 20, 5-chloro-2-fluoro-N-trans-(4-{4-[2-(2,2,2-trifluoro-ethoxy)-phenyl]-piperidin-1-yl}-cyclohexyl)-benzenesulfonamide], for which the melting point amounted to 227 °C. At α1a-AR, this molecule showed a Ki of 4.7 nM. In addition, the inhibition constant Ki on α1b-AR (setting [2]) is 786 nM. For the same molecule, the Ki on α1d-AR (setting [3]) was 43.9 nM.
Take `COc1ccc(S(=O)(=O)N[C@H]2CC[C@@H](N3CCC(c4ccccc4OCCF)CC3)CC2)cc1OC` [Cpd 27, N-cis-(4-{4-[2-(2-fluoro-ethoxy)-phenyl]-piperidin-1-yl}-cyclohexyl)-3,4-dimethoxy-benzenesulfonamide]: the melting point is 225 °C. Moreover, the inhibition constant (Ki) at α1a-AR (setting [1]) was found to be 10.9 nM. Also, the inhibitory constant (Ki) at α1b-AR (setting [2]) was determined as 354 nM. In addition, the Ki on α1d-AR (setting [3]) stood at 8.8 nM.
For `COc1ccc(S(=O)(=O)N[C@H]2CC[C@@H](N3CCC(c4ccccc4OC(C)C)CC3)CC2)cc1OC` (as salt: fumarate) [Cpd 1, N-cis-{4-[4-(2-isopropoxy-phenyl)-piperidin-1-yl]-cyclohexyl}-3,4-dimethoxy-benzenesulfonamide], the melting point turned out to be 221 °C.
As for `O=S(=O)(N[C@H]1CC[C@@H](N2CCC(c3ccccc3OCC(F)(F)F)CC2)CC1)c1cccc(OC(F)F)c1` [Cpd 23, 3-difluoromethoxy-N-cis-(4-{4-[2-(2,2,2-trifluoro-ethoxy)-phenyl]-piperidin-1-yl}-cyclohexyl)-benzenesulfonamide], the melting point turned out to be 105 °C. At α1a-AR (setting [1]), the Ki worked out at 7 nM. Moreover, the Ki at α1b-AR (setting [2]) is 261 nM. Also, the inhibition constant Ki on α1d-AR (setting [3]) turned out to be 5.9 nM.
As for `COc1ccc(S(=O)(=O)N[C@H]2CC[C@@H](N3CCC(c4ccccc4OCC(F)(F)F)CC3)CC2)cc1OC` (as salt: fumarate) [Cpd 5, 3,4-dimethoxy-N-cis-(4-{4-[2-(2,2,2-trifluoro-ethoxy)-phenyl]-piperidin-1-yl}-cyclohexyl)-benzenesulfonamide], the melting point was 201 °C (dec.).
As to `COc1ccc(Cl)cc1S(=O)(=O)N[C@H]1CC[C@H](N2CCC(c3ccccc3OC3CC3)CC2)CC1` [Cpd 10, 5-chloro-N-trans-{4-[4-(2-cyclopropoxy-phenyl)-piperidin-1-yl]-cyclohexyl}-2-methoxy-benzenesulfonamide], the values for the inhibitory constant (Ki) on α1a-AR (setting [1]), at α1b-AR (setting [2]) and at α1d-AR (setting [3]) were 4.5 nM, 305 nM and 47 nM, respectively.
`COc1ccc(S(=O)(=O)N[C@H]2CC[C@@H](N3CCC(c4ccccc4OC4CC4)CC3)CC2)cc1OC` [Cpd 7, N-cis-{4-[4-(2-cyclopropoxy-phenyl)-piperidin-1-yl]-cyclohexyl}-3,4-dimethoxy-benzenesulfonamide]: the Ki was determined as 0.91 nM on α1a-AR (setting [1]), 141 nM at α1b-AR (setting [2]) and 2 nM on α1d-AR (setting [3]).
